Measurements published in article PMC11510591, “In Vitro Evaluation of Pharmacokinetic Properties of Selected Dual COX-2 and 5-LOX Inhibitors” (Pharmaceuticals, 2024).
Values after ≈ are worked out from the molar mass of the structure shown. Values joined by “and” are separate entries in the source; they are usually repeats but may differ in a detail not shown here. Identical values can stand only once.

Key:
[1] = PAMPA test (hexadecane membrane), passive gastrointestinal absorption; assay type: in vitro ADME; conditions: for Papp at 5 h, 0.05 mM / –logPe: donor pH 5.5, acceptor pH 7.4, 5 h, room temperature; for Papp at 5 h, 0.05 mM: read-out: Pe (effective passive permeability coefficient)
Experimental: The PAMPA test uses a 96-well plate coated with an impregnated filter material, forming an artificial membrane that separates donor and acceptor compartments. Egg lecithin in dodecane is commonly used to simulate membrane lipids, while hexadecane is effective for mimicking gastrointestinal membranes. […] Therefore, hexadecane dissolved in hexane was chosen in this study.
The phosphate buffer solution was prepared by dissolving 0.5292 g of NaH2PO4 × H2O and 0.0234 g of Na2HPO4 in purified water (200 mL). The phosphate buffer was divided into two portions, and the pH was adjusted to pH 5.5 and pH 7.4 using o-phosphoric acid. The donor solutions were prepared by diluting the stock solutions (5 mM DMSO solutions) with the buffer pH 5.5 to obtain the final concentration of 0.05 mM (the DMSO concentration in the donor solutions was 1%), while the acceptor solution was prepared as a 1% DMSO solution in the buffer pH 7.4. The use of DMSO as a cosolvent in PAMPA is necessary in cases of low-soluble compounds. It is usually used in concentrations up to 5% [25, 55, 56, 57].
The PAMPA test was performed according to the literature procedure using a 96-well microtiter polycarbonate filter plate (Merck Millipore, Carrigtwohill, Ireland) that was impregnated with 15 µL of a hexadecane/hexane (5:95, v/v) solution [52]. Donor solutions (300 µL per well) were transferred into each well of the donor plate. Acceptor solution was transferred into each well (300 µL per well) of the acceptor plate (MSSACCEPTOR, Millipore, Burlington, MA, USA) and covered by the donor plate to create a PAMPA sandwich. The system was incubated at room temperature for 5 h at a vibratory mixer. After incubation, the PAMPA sandwich was dissociated, and concentrations of all tested compounds in each well, as well as in the starting solutions, were determined using the HPLC method (Section 3.3.1).
The concentrations of tested compounds in the starting solutions, as well as in the donor and acceptor sections after incubation, were determined by the HPLC method on the Dionex Ultimate 3000 (Thermo Fisher Scientific, Waltham, MA, USA) equipped with a quaternary pump, autosampler, and DAD detector using a ZORBAX Eclipse XDB-C18 4.6 × 150 mm, 5 µm column (Agilent Technologies, Santa Clara, CA, USA).
R represents the retention, which is defined as the fraction of the tested compound retained in the PAMPA membrane (filters and plate materials), CD(t) is the concentration of a tested compound in a donor compartment after incubation time t, CA(t) is the concentration of a tested compound in an acceptor compartment after incubation time t, while CD(0) represents the concentration of a tested compound in a donor compartment at the beginning of the incubation (starting solution).

Solubility in water = assay type: physicochemical; conditions: distilled water, thermodynamic from solid, room temperature
Experimental: As discussed in the previous section, all tested compounds are dominantly unionized in the whole range of physiologically important pH values (2 < pH ≤ 7.4). Therefore, water was used for the determination of solubility. […] According to USP34, all tested compounds can be defined as practically insoluble since their solubilities are ≤100 mg/L [54].
Solubility of tested compounds was investigated at room temperature. Compounds were weighed on a scale (5 mg each) and transferred to flasks. In a stepwise procedure, increasing volumes of distilled water were added, and after each addition of an amount of water, the mixture was placed on an ultrasound bath for 5 min and visually inspected for undissolved parts of the sample. When no […] could be observed, the mixture was transferred into a glass cylinder, and opalescence was compared with water. If the mixture was not more opalescent than the solvent, the solvation was considered to be achieved. Solubility of a compound is defined according to the amount of solvent required to dissolve 1 mg.

[2] = tested on: CD-1 mouse liver microsomes; conditions: pH 7.4; for Peak Area, t0: 0 min
Experimental: Microsomal stability (and thus susceptibility to metabolism) was tested using microsomes derived from CD-1 mouse liver. According to the applied protocol, both phases of metabolism were activated by the addition of cofactors NADPH and UDP-GlcUA. […] Stock solutions of all tested compounds (5 mM DMSO solutions) were diluted with 0.1 M potassium phosphate buffer pH 7.4 to obtain 0.1 mM solutions, which were further incubated according to the protocol. In order to activate both the 1st and 2nd phases of metabolism, NADPH and UDP-GlcUA were used as cofactors. Tested compounds were incubated at 37 °C for 30 min, and the incubation was quenched immediately after the addition of cofactors (t0) and after the defined incubation time (t) by mixing 100 µL of corresponding incubation mixtures with 200 µL of cold acetonitrile. All compounds were tested in duplicates, and their concentrations were determined using the HPLC-MS/MS method (Section 3.7.1).
The HPLC-MS/MS analysis was performed on the UHPLC chromatograph ACELLA (Thermo Fisher Scientific Inc., Madison, WI, USA), coupled to a triple quadrupole mass spectrometer TSQ Quantum Access MAX (Thermo Fisher Scientific Inc., Madison, WI, USA) with a heated electrospray ionization (HESI) interface. The column used was Zorbax Extend C18 (150 mm × 4.6 mm, 5 µm; Agilent Technologies), which was thermostated at 25 °C. The mobile phase consisted of acetonitrile and 0.1% formic acid (60:40, v/v), with a flow rate of 500 µL/min. The injection volume was 10 µL.

Membrane retention (R) ([1]; PAMPA) [%]	Papp at 5 h, 0.05 mM ([1]; PAMPA) [×10⁻⁶ cm/s]	–logPe [1]	solubility at 5 min (Solubility in water) [µg/mL]	Peak Area, t0 [2]	Peak Area, t ([2]; 30 min)	The Decrease in Peak Area (%) ([2]; 30 min)	Compound
24	146	3.84 ± 0.05	19.4 (≈ 82.2 µM)	60.0 ± 1.4 ×10^3	44.6 ± 1.9 ×10^3	–	CC(=O)N(O)C(C)c1ccc(CC(C)C)cc1 (stereo not shown) [Compound 11]
–	17.6	–	14.3 (≈ 52.1 µM)	16.5 ± 3.1 ×10^3	9.6 ± 3.0 ×10^3	41.65 (p = 0.0034) %	CC(NC(=O)NO)c1ccc(-c2ccccc2)c(F)c1 (stereo not shown) [Compound 2]
–	42.9	–	1.5 (≈ 3.87 µM)	131.5 ± 16.8 ×10^3	60.5 ± 6.4 ×10^3	–	COc1ccc2c(c1)c(CNC(=O)NO)c(C)n2C(=O)c1ccc(Cl)cc1 [Compound 1]
–	157	3.81 and 3.81 ± 0.04	11.8 (≈ 45.4 µM)	43.9 ± 3.2 ×10^3	18.2 ± 0.1 ×10^3	–	COc1ccc2cc(C(C)N(O)C(C)=O)ccc2c1 (stereo not shown) [Compound 12]

Compound	Membrane retention (R) ([1]; PAMPA) [%]	Papp at 5 h, 0.05 mM ([1]; PAMPA) [×10⁻⁶ cm/s]	–logPe [1]	solubility at 5 min (Solubility in water) [µg/mL]	Peak Area, t0 [2]	Peak Area, t ([2]; 30 min)	The Decrease in Peak Area (%) ([2]; 30 min)
O=C(NO)NCc1ccccc1Nc1c(Cl)cccc1Cl [Compound 3]	–	77.3	4.11 ± 0.02	5.45 (≈ 16.7 µM)	1033.6 ± 42.5 ×10^3	455.5 ± 8.9 ×10^3	–
